What all share (format): cell-based
In one assay the test system is HCV GT 3a replicon. The experiment in a line: HCV replicon assay, GT2a chimeric replicon expressing NS5A from GT3a strain S52. The settings on record: Hepatitis C virus, 72 h, read-out: EC50 3a. As to the method: (§1) The activity of compounds was determined against HCV replicons representing genotypes (GT) 1a, 1b, 2a, and 3a. To generate stable Huh-7.5-based cell lines, HCV replicons were engineered to express the Renilla luciferase reporter (hRluc) fused to the neomycin phosphotransferase (Neo) gene. GT2a and GT3a HCV replicons were based on the JFH-1 subgenomic replicon (Kato et al. 2003 Gastroenterology, 125:1808-1817), in which the NS5A gene was replaced with that of strains J6 and S52 (GT2a and G3a, respectively). The activity of compounds against GT1a replicons encoding NS5A mutations (M28T, Q30R, L31M, Y93C, and Y93H) was also determined in a transient replication assay. The parental GT1a and GT2a replicons (pH/SG-Neo(L+I) and pSG-Neo-JFH1, respectively) were licensed from Apath LLC (Saint Louis, Mo.). The parental GT 1b replicon (pFKi389lucubineo_3_3′_ET) was licensed from ReBLikon GmbH (Germany). HCV replicons were constructed by standard molecular biology techniques described below. All replicon constructs were verified by restriction enzyme digestion and DNA sequencing.
(§2) The plasmid pSG-hRlucNeo-JFH1 was generated from pSG-Neo-JFH1 (Kato et al. 2003, Gastroentrology 125:1808-1817). A fragment containing the JFH-1 5′ NTR—hRluc-Neo gene and two unique restriction sites (AgeI and PmeI) was synthesized (Integrated DNA Technologies, Coralville, Iowa). The resulting synthetic plasmid was digested with AgeI and PmeI and the excised fragment (5′NTR-hRluc-Neo) was ligated into pSG-Neo-JFH1 digested with the same enzymes to generate pSG-hRlucNeo-JFH1. To allow expression of heterologous NS5A sequences, an NS5A shuttle vector was generated from pSG-Neo-JFH1, in which the entire coding sequence of NS5A plus the first eight codons of NS5B were replaced with an AfeI restriction site. This was done by Infusion cloning (Clontech, Mountain View, Calif.) from two PCR products that were generated using pSG-Neo-JFH1 as a template and the following primer pairs:
(§3) Underlined sequences denote regions of overlap necessary for Infusion cloning. Purified PCR products were cloned directly into an NsiI/SnaBI digested pSG-Neo-JFH1 following the manufacturer's instructions to generate pSG-Neo-JFH1-5Ashuttle. The 2023 base pair AgeI/PmeI fragment from pSG-hRlucNeo-JFH1 was then ligated into pSG-Neo-JFH1-5Ashuttle to generate pSG-hRlucNeo-JFH1-5Ashuttle. To generate the 2a-2a-(J6) and 2a-3a-(S52) NS5A chimeric replicons, the full length NS5A sequences from GT2a strain J6 (accession AF177036) and GT3a strain S52 (accession GU814263), with the addition of the first eight codons of JFH-1 NS5B (5′-TCCATGTCATACTCCTGGACCGGG-3′), were synthesized by GeneArt (Life Technologies, Carlsbad Calif.). J6 and S52 NS5A sequences were then PCR amplified from the synthetic clones using the appropriate forward primer:
(§4) Underlined sequences denote regions of overlap with pSG-hRlucNeo-JFH1-5Ashuttle necessary for Infusion cloning. Purified PCR products were directly cloned into AfeI-digested shuttle vector by Infusion cloning following the manufacturer's instructions.
(§5) Stable HCV replicon cell lines were grown in complete media (Dulbecco's modified Eagle medium [DMEM], 2 mM L-glutamine, 0.1 mM essential amino acids, 1 mM sodium pyruvate, 10% heat inactivated fetal bovine serum) with the addition 500 μg/ml […] (G418). Huh7-lunet cells were maintained in the same medium without the addition of G418. Cells were routinely passaged at a dilution of 1:4 two times a week. The assay medium for both luciferase reporter HCV replicon and cytotoxicity assays used phenol red-free DMEM and lacked G418. For each stable replicon assay, a sixteen point half-log dilution series of compound was stamped (0.5 ul compound per well) into three replica 384-well plates, to which cells were added directly (4000 cells/well). […]
(In general: In antiviral work, replicon cells carry a viral genome segment that copies itself.)

Assay [1] deals with GT1a replicon encoding NS5A mutation Q30R. In words: Transient replication assay, GT1a replicon with NS5A mutation Q30R. The settings on record: Hepatitis C virus, read-out: EC50 1a Q30R.
In assay [2] the test system is GT1a replicon encoding NS5A mutation Y93C. The experiment in a line: Transient replication assay, GT1a replicon with NS5A mutation Y93C. As to conditions: Hepatitis C virus, read-out: EC50 1a Y93C.
For the next assay, the system named is HCV GT 2a-J6 replicon. In words: HCV replicon assay, GT2a chimeric replicon expressing NS5A from GT2a strain J6. The settings on record: Hepatitis C virus, 72 h, read-out: EC50 2a J6. As to the method: as §1, §2, §3, §4, §5
The test system of assay [3] is GT1a replicon encoding NS5A mutation L31V. In words: Transient replication assay, GT1a replicon with NS5A mutation L31V. As to conditions: Hepatitis C virus, read-out: EC50 1a L31V.
For another assay, the system named is HCV GT 1b replicon. In words: HCV replicon assay, stable GT 1b replicon (Renilla luciferase). As to conditions: Hepatitis C virus, GT1B, 72 h. As to the method:
as §1
The hRluc-Neo cassette was PCR amplified from pF9 cytomegalovirus (CMV) hRluc-Neo Flexi(R) (Promega) using Accuprime Super Mix II (Invitrogen) and the following primers, which introduce restriction sites: […]
The amplification product was subcloned into pCR2.1-TOPO (Invitrogen). The resulting plasmid was digested with AscI and NotI, and the excised hRluc-Neo fragment was ligated using the Roche Quick Ligation Kit (Roche) into pFKi389lucubineo_3_3′_ET digested with the same enzymes.
Stable HCV replicon cell lines were grown in complete media (Dulbecco's modified Eagle medium [DMEM], 2 mM L-glutamine, 0.1 mM essential amino acids, 1 mM sodium pyruvate, 10% heat inactivated fetal bovine serum) with the addition 500 μg/ml […] (G418). Huh7-lunet cells were maintained in the same medium without the addition of G418. Cells were routinely passaged at a dilution of 1:4 two times a week. The assay medium for both luciferase reporter HCV replicon and cytotoxicity assays used phenol red-free DMEM and lacked G418. For each stable replicon assay, a sixteen point half-log dilution series of compound was stamped (0.5 ul compound per well) into three replica 384-well plates, to which cells were added directly (4000 cells/well). For the transient replication assay, Huh7-lunet cells in ice-cold phosphate buffered saline (PBS) were electroporated (BioRad electroporator; 950 uF, 270V) with 10 ug purified in vitro transcribed HCV replicon RNA, followed by resuspension in complete media and plating (8000 cells/well) into compound stamped 384-well plates. Luciferase activity of compound-treated cells was measured relative to DMSO-treated cells after 72 h incubation using RENILLA-GLO™ Luciferase Assay (Promega). Cytotoxicity (CC50) in the GT1b replicon cell line was analyzed using CELL TITER-GLO™ (Promega).
The compounds of the present invention can be effective against the HCV 1b genotype. It should also be understood that the compounds of the present invention can inhibit multiple genotypes of HCV. In one embodiment compound of the present invention are active against the 1a, 1b, 2a, 2b, 3a, 4a, and 5a genotypes. In another embodiment compound of the present invention are active against the HCV resistant mutants. […] EC50s are in pM against HCV GT 1a and GT 1b; and nM against GT 2a-J6, GT 3a and GT1a resistant variants (M28T, Q30R, L31V, Y93C and Y93H).

The EC50 is the concentration at which the effect is half-maximal. With `COC(=O)N[C@H](C(=O)N1C[C@]2(CCCOC2)C[C@H]1c1ncc(-c2ccc3c(c2)COc2cc(-c4cnc([C@@H]5C[C@@H]6CCCC[C@@H]6N5C(=O)[C@@H](NC(=O)OC)C(C)C)[nH]4)ccc2-3)[nH]1)C(C)C` [Compound 15], the EC50 in the assay with HCV GT 3a replicon turned out to be 0.2 nM; in assay [1], 0.003 nM; in assay [2], 0.2 nM; in the assay on HCV GT 2a-J6 replicon, 1 nM; in assay [3], 0.1 nM; in the assay with HCV GT 1b replicon it was 0.012 nM.

As for `COC(=O)N[C@H](C(=O)N1C[C@]2(CCCOC2)C[C@H]1c1ncc(-c2ccc(-c3ccc4c(ccc5nc([C@@H]6C[C@@H]7CCC[C@@H]7N6C(=O)[C@@H](NC(=O)OC)C(C)C)[nH]c54)c3)cc2)[nH]1)C(C)C` [Compound 16], the half-maximal effective concentration (EC50) with HCV GT 3a replicon stood at 0.8 nM; in assay [1], 0.02 nM; in assay [2], 0.3 nM; in the assay on HCV GT 2a-J6 replicon, 0.8 nM; in assay [3], 0.3 nM; with HCV GT 1b replicon, 0.01 nM.

Take `COC(=O)N[C@H](C(=O)N1C[C@]2(CCCOC2)C[C@H]1c1ncc(-c2ccc3c(ccc4cc(-c5cnc([C@@H]6C[C@@H]7CCCC[C@@H]7N6C(=O)[C@@H](NC(=O)OC)C(C)C)[nH]5)ccc43)c2)[nH]1)C(C)C` [Compound 17]: the 50% effective concentration (EC50) with HCV GT 3a replicon is 6 nM; in assay [1], 0.01 nM; in assay [2] it was 0.3 nM; in the assay on HCV GT 2a-J6 replicon it was 22 nM; in assay [3] it was 0.3 nM; with HCV GT 1b replicon, 0.013 nM.

Turning to `COC(=O)N[C@H](C(=O)N1C[C@]2(CCCOC2)C[C@H]1c1ncc(-c2ccc(-c3ccc4c(ccc5nc([C@@H]6C[C@H]7C[C@H]7N6C(=O)[C@@H](NC(=O)OC)C(C)C)[nH]c54)c3)cc2)[nH]1)C(C)C` [Compound 18], the EC50 was 1 nM with HCV GT 3a replicon; 0.05 nM in assay [1]; 0.2 nM in assay [2]; 2 nM in the assay on HCV GT 2a-J6 replicon; 0.3 nM in assay [3]; 0.011 nM with HCV GT 1b replicon.

As to `COC(=O)N[C@H](C(=O)N1C[C@]2(CCCOC2)C[C@H]1c1ncc(-c2ccc(-c3ccc4c(ccc5nc([C@@H]6C[C@@H]7C[C@@H]7N6C(=O)[C@@H](NC(=O)OC)C(C)C)[nH]c54)c3)cc2)[nH]1)C(C)C` [Compound 20], the EC50 in the assay on HCV GT 3a replicon was found to be 1 nM; in assay [1], 0.2 nM; in assay [2], 1 nM; with HCV GT 2a-J6 replicon it was 23 nM; in assay [3], 7 nM; in the assay on HCV GT 1b replicon, 0.011 nM.

For `COC(=O)N[C@H](C(=O)N1C[C@]2(CCCOC2)C[C@H]1c1nc2ccc3cc(-c4ccc5c(ccc6nc([C@@H]7C[C@@H]8C[C@@H]8N7C(=O)[C@@H](NC(=O)OC)C(C)C)[nH]c65)c4)ccc3c2[nH]1)C(C)C` [Compound 21], the EC50 is 0.09 nM in the assay with HCV GT 3a replicon; 0.1 nM in assay [1]; 0.09 nM in assay [2]; 2 nM in the assay on HCV GT 2a-J6 replicon; 1 nM in assay [3]; 0.03 nM with HCV GT 1b replicon.

On to `COC(=O)N[C@H](C(=O)N1C[C@]2(CCCOC2)C[C@H]1c1nc2ccc3cc(-c4ccc(-c5cnc([C@@H]6C[C@@H]7C[C@@H]7N6C(=O)[C@@H](NC(=O)OC)C(C)C)[nH]5)cc4)ccc3c2[nH]1)C(C)C` [Compound 22], for which the EC50 is 0.6 nM with HCV GT 3a replicon; 0.1 nM in assay [1]; 0.3 nM in assay [2]; 6 nM in the assay on HCV GT 2a-J6 replicon; 0.9 nM in assay [3]; 0.008 nM with HCV GT 1b replicon.

For `COC(=O)N[C@H](C(=O)N1C[C@]2(CCCOC2)C[C@H]1c1nc2ccc3cc(-c4ccc5c(ccc6nc([C@@H]7C[C@@H]8CCCC[C@@H]8N7C(=O)[C@@H](NC(=O)OC)C(C)C)[nH]c65)c4)ccc3c2[nH]1)C(C)C` [Compound 23], the EC50 with HCV GT 3a replicon was determined as 0.06 nM; in assay [1] it was 0.01 nM; in assay [2], 0.02 nM; in the assay with HCV GT 2a-J6 replicon, 0.05 nM; in assay [3] it was 0.07 nM; in the assay on HCV GT 1b replicon, 0.007 nM.

The values are drawn from patent US10407445B2, “Hepatitis C virus inhibitors” (ENANTA PHARMACEUTICALS, INC., priority 2013, dated 2019).
